{"source": "patent US6747151B2", "about": "“Azo compounds for type I phototherapy” (Mallinckrodt, Inc., priority 2001, dated 2004)", "origin": "cited, not measured here", "key": {"tumors": {"test_system": "tumors", "conditions": "after administration"}, "melanoma cells": {"test_system": "melanoma cells", "conditions": "after administration"}}, "data": [{"molecule": "NCC(=O)CCC(=O)O", "note": "[delta-aminolevulinic acid]", "values": [{"measurement": "uptake of porphyrins in tumors compared to normal tissues", "setting": "tumors", "value": "two-fold"}]}, {"molecule": "dihydroxyindole-2-carboxylic acid", "values": [{"measurement": "levels of melanin in melanoma cells compared to normal cells", "setting": "melanoma cells", "value": "substantially enhanced"}]}]}
